From patent US20230340012A1, “NATURAL AND SYNTHETIC COMPOUNDS FOR TREATING CANCER AND OTHER DISEASES” (PACIFIC ARROW LIMITED, priority 2009, published 2023)

Tested on: cancer cells
Assay: MTT cytotoxic assay of esterification products (Cytotoxicity activity)
Format: cell-based, human
In short: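 Cytotoxicity was read by MTT (Carmichael method, modified), with cells seeded 24 h ahead of treatment. Sixteen human cancer lines spanning bone, lung, bladder, ovary, colon, pancreas, prostate, skin, mouth, kidney, breast, liver, brain, leukemia and cervix were used. Test samples were acyl chloride esterification products of triterpenes, as mixtures or HPLC-purified compounds.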

[1] = E4A esterified with 2-propenoyl chloride (Ppe = Propenoyl), compounds isolated with HPLC
[2] = E4A esterified with Propionyl chloride (Ppi = Propionyl), compounds isolated with HPLC
[3] = E4A esterified with benzoyl chloride (Ben = benzoyl), compounds isolated with HPLC
[4] = esterification products of core compound E4A with (2E)-2-pentenoyl chloride (2pe = 2-pentenoyl)
[5] = esterification products of core compound E4A with Butyryl chloride (But = Butyryl)
[6] = esterification products of core compound E4A with Decanoyl chloride (Dec = Decanoyl)
[7] = esterification products of core compound E4A with Isobutyryl chloride (Iso = Isobutyryl)
[8] = esterification products of core compound E4A with Myristoyl chloride (Myr = Myristoyl)
[9] = esterification products of core compound E4A with Octanoyl chloride (Oct = Octanoyl)
[10] = esterification products isolated with HPLC, graded strong / moderate / weak
[11] = MTT cytotoxic assay, isolated esterification products of E4A
[12] = E4A esterified with Acetyl chloride (Acy = Acetyl), compounds isolated with HPLC
[13] = E4A esterified with Crotonoyl chloride (Cro = Crotonoyl), compounds isolated with HPLC
[14] = E4A esterified with Cinnamoyl chloride (Cin = Cinnamoyl), compounds isolated with HPLC

CC1(C)CC2C3=CCC4C5(C)CCC(O)C(C)(COC(=O)c6ccccc6)C5CCC4(C)C3(C)CC(OC(=O)c3ccccc3)C2(CO)C(O)C1O (stereo not shown) [Compound K32]
Cytotoxicity activity [1]: moderate
Cytotoxicity activity [2]: moderate
Cytotoxicity activity [3]: moderate
Cytotoxicity activity [4]: moderate
Cytotoxicity activity [5]: moderate
Cytotoxicity activity [6]: moderate
Cytotoxicity activity [7]: moderate
Cytotoxicity activity [8]: moderate
Cytotoxicity activity [9]: moderate

C=CCCC(=O)OCC12C(O)CC3(C)C(=CCC4C5(C)CCC(OC(=O)CCC=C)C(C)(COC(=O)C(C)=CC)C5CCC43C)C1CC(C)(C)C(O)C2O (stereo not shown) [Tig—Pen—4]
Cytotoxicity activity [10]: moderate

CCC(CC)C(=O)OCC1(C)C(O)CCC2(C)C1CCC1(C)C2CC=C2C3CC(C)(C)C(OC(=O)C(CC)CC)C(OC(=O)C(CC)CC)C3(COC(=O)C(CC)CC)C(O)CC21C (stereo not shown) [Compound E8]
Cytotoxicity activity [11]: weak

CC=C(C)C(=O)OCC1(C)C(OC(=O)CCCCC)CCC2(C)C1CCC1(C)C2CC=C2C3CC(C)(C)C(O)C(O)C3(COC(=O)CCCCC)C(O)CC21C (stereo not shown) [Tig—Hex—4]
Cytotoxicity activity [10]: moderate

CC=C(C)C(=O)OCC1(C)C(OC(=O)C(C)=CC)CCC2(C)C1CCC1(C)C2CC=C2C3CC(C)(C)C(OC(=O)C(C)=CC)C(OC(=O)C(C)=CC)C3(COC(=O)C(C)=CC)C(O)CC21C (stereo not shown) [Compound A15]
Cytotoxicity activity [11]: weak

CC=C(C)C(=O)OCC1(C)C(O)CCC2(C)C1CCC1(C)C2CC=C2C3CC(C)(C)C(OC(=O)CCCCC)C(O)C3(CO)C(O)CC21C (stereo not shown) [Tig—Hex—5]
Cytotoxicity activity [10]: moderate

CC1(C)CC2C3=CCC4C5(C)CCC(OC(=O)c6ccccc6)C(C)(COC(=O)c6ccccc6)C5CCC4(C)C3(C)CC(O)C2(CO)C(O)C1O (stereo not shown) [Compound K31]
Cytotoxicity activity [1]: moderate
Cytotoxicity activity [2]: moderate
Cytotoxicity activity [3]: moderate
Cytotoxicity activity [4]: moderate
Cytotoxicity activity [5]: moderate
Cytotoxicity activity [6]: moderate
Cytotoxicity activity [7]: moderate
Cytotoxicity activity [8]: moderate
Cytotoxicity activity [9]: moderate

CC=C(C)C(=O)OCC1(C)C(O)CCC2(C)C1CCC1(C)C2CC=C2C3CC(C)(C)C(OC(C)=O)C(OC(C)=O)C3(COC(=O)C(C)=CC)C(O)CC21C (stereo not shown) [Tig—R—Acy—1]
Cytotoxicity activity [10]: weak

CC(=O)OCC1(C)C(O)CCC2(C)C1CCC1(C)C2CC=C2C3CC(C)(C)C(O)C(O)C3(CO)C(O)CC21C (stereo not shown) [Compound H1]
Cytotoxicity activity [12]: moderate

CCC(CC)C(=O)OC1C(OC(=O)C(CC)CC)C2(CO)C(OC(=O)C(CC)CC)CC3(C)C(=CCC4C5(C)CCC(O)C(C)(CO)C5CCC43C)C2CC1(C)C (stereo not shown) [Compound E22]
Cytotoxicity activity [11]: moderate

CC(C)=CC(=O)OC1C(OC(=O)C=C(C)C)C2(CO)C(O)CC3(C)C(=CCC4C5(C)CCC(OC(=O)C=C(C)C)C(C)(CO)C5CCC43C)C2CC1(C)C (stereo not shown) [Compound B23]
Cytotoxicity activity [11]: moderate

CC=CC(=O)OCC1(C)C(OC(=O)C=CC)CCC2(C)C1CCC1(C)C2CC=C2C3CC(C)(C)C(OC(=O)C=CC)C(O)C3(COC(=O)C=CC)C(O)CC21C (stereo not shown) [Compound I11]
Cytotoxicity activity [13]: weak

CCC(CC)C(=O)OCC1(C)C(O)CCC2(C)C1CCC1(C)C2CC=C2C3CC(C)(C)C(O)C(OC(=O)C(CC)CC)C3(CO)C(O)CC21C (stereo not shown) [Compound E30]
Cytotoxicity activity [11]: moderate

CC1(C)CC2C3=CCC4C5(C)CCC(O)C(C)(COC(=O)C=Cc6ccccc6)C5CCC4(C)C3(C)CC(O)C2(COC(=O)C=Cc2ccccc2)C(O)C1O (stereo not shown) [Compound J3]
Cytotoxicity activity [14]: strong

CC=C(C)C(=O)OC1C(OC(=O)C(C)=CC)C2(CO)C(O)CC3(C)C(=CCC4C5(C)CCC(OC(=O)C(C)=CC)C(C)(CO)C5CCC43C)C2CC1(C)C (stereo not shown) [Compound A23]
Cytotoxicity activity [11]: moderate

CC1(C)CC2C3=CCC4C5(C)CCC(O)C(C)(CO)C5CCC4(C)C3(C)CC(O)C2(COC(=O)c2ccccc2)C(OC(=O)c2ccccc2)C1OC(=O)c1ccccc1 (stereo not shown) [Compound K20]
Cytotoxicity activity [1]: moderate
Cytotoxicity activity [2]: moderate
Cytotoxicity activity [3]: moderate
Cytotoxicity activity [4]: moderate
Cytotoxicity activity [5]: moderate
Cytotoxicity activity [6]: moderate
Cytotoxicity activity [7]: moderate
Cytotoxicity activity [8]: moderate
Cytotoxicity activity [9]: moderate

CC=CC(=O)OCC12C(O)CC3(C)C(=CCC4C5(C)CCC(OC(=O)C=CC)C(C)(CO)C5CCC43C)C1CC(C)(C)C(O)C2O (stereo not shown) [Compound I27]
Cytotoxicity activity [13]: moderate

CC(=O)OCC1(C)C(O)CCC2(C)C1CCC1(C)C2CC=C2C3CC(C)(C)C(OC(C)=O)C(OC(C)=O)C3(COC(C)=O)C(O)CC21C (stereo not shown) [Compound H8]
Cytotoxicity activity [12]: weak

CC=C(C)C(=O)OCC1(C)C(O)CCC2(C)C1CCC1(C)C2CC=C2C3CC(C)(C)C(OC(=O)C(CC)CC)C(O)C3(COC(=O)C(CC)CC)C(O)CC21C (stereo not shown) [Tig—Eth—2]
Cytotoxicity activity [10]: moderate

CC=CC(=O)OCC12C(O)CC3(C)C(=CCC4C5(C)CCC(O)C(C)(CO)C5CCC43C)C1CC(C)(C)C(OC(=O)C=CC)C2O (stereo not shown) [Compound I25]
Cytotoxicity activity [13]: moderate

CC=CC(=O)OCC12C(OC(=O)C=CC)CC3(C)C(=CCC4C5(C)CCC(O)C(C)(CO)C5CCC43C)C1CC(C)(C)C(O)C2O (stereo not shown) [Compound I28]
Cytotoxicity activity [13]: moderate

CCC(CC)C(=O)OCC1(C)C(O)CCC2(C)C1CCC1(C)C2CC=C2C3CC(C)(C)C(OC(=O)C(CC)CC)C(OC(=O)C(CC)CC)C3(COC(=O)C(CC)CC)C(OC(=O)C(CC)CC)CC21C (stereo not shown) [Compound E16]
Cytotoxicity activity [11]: weak

CC=C(C)C(=O)OCC12C(O)CC3(C)C(=CCC4C5(C)CCC(OC(=O)C(C)=CC)C(C)(CO)C5CCC43C)C1CC(C)(C)C(O)C2O (stereo not shown) [Compound A27]
Cytotoxicity activity [11]: moderate

C=CCCC(=O)OC1C(O)C(C)(C)CC2C3=CCC4C5(C)CCC(O)C(C)(COC(=O)C(C)=CC)C5CCC4(C)C3(C)CC(O)C21COC(=O)C(C)=CC (stereo not shown) [Tig—R—Pen—3]
Cytotoxicity activity [10]: moderate

CC1(C)CC2C3=CCC4C5(C)CCC(O)C(C)(COC(=O)C=Cc6ccccc6)C5CCC4(C)C3(C)CC(OC(=O)C=Cc3ccccc3)C2(COC(=O)C=Cc2ccccc2)C(O)C1OC(=O)C=Cc1ccccc1 (stereo not shown) [Compound J13]
Cytotoxicity activity [14]: weak

CC=CC(=O)OCC12C(O)CC3(C)C(=CCC4C5(C)CCC(O)C(C)(CO)C5CCC43C)C1CC(C)(C)C(O)C2O (stereo not shown) [Compound I2]
Cytotoxicity activity [13]: moderate

C=CCCC(=O)OCC1(C)C(OC(=O)CCC=C)CCC2(C)C1CCC1(C)C2CC=C2C3CC(C)(C)C(O)C(OC(=O)CCC=C)C3(COC(=O)CCC=C)C(O)CC21C (stereo not shown) [Compound C9]
Cytotoxicity activity [11]: weak

CCC(CC)C(=O)OCC12C(O)CC3(C)C(=CCC4C5(C)CCC(O)C(C)(CO)C5CCC43C)C1CC(C)(C)C(OC(=O)C(CC)CC)C2O (stereo not shown) [Compound E25]
Cytotoxicity activity [11]: moderate

CC=C(C)C(=O)OCC1(C)C(O)CCC2(C)C1CCC1(C)C2CC=C2C3CC(C)(C)C(O)C(OC(=O)C=Cc4ccccc4)C3(CO)C(O)CC21C (stereo not shown) [Tig—Cin—6]
Cytotoxicity activity [10]: moderate

CC(C)=CC(=O)OCC1(C)C(O)CCC2(C)C1CCC1(C)C2CC=C2C3CC(C)(C)C(OC(=O)C=C(C)C)C(OC(=O)C=C(C)C)C3(CO)C(O)CC21C (stereo not shown) [Compound B21]
Cytotoxicity activity [11]: moderate

CC(C)=CC(=O)OCC12C(O)CC3(C)C(=CCC4C5(C)CCC(O)C(C)(CO)C5CCC43C)C1CC(C)(C)C(O)C2O (stereo not shown) [Compound B2]
Cytotoxicity activity [11]: moderate

CCC(CC)C(=O)OCC1(C)C(O)CCC2(C)C1CCC1(C)C2CC=C2C3CC(C)(C)C(OC(=O)C(CC)CC)C(O)C3(COC(=O)C(CC)CC)C(OC(=O)C(CC)CC)CC21C (stereo not shown) [Compound E13]
Cytotoxicity activity [11]: weak

CC=CC(=O)OC1CCC2(C)C(CCC3(C)C2CC=C2C4CC(C)(C)C(O)C(OC(=O)C=CC)C4(COC(=O)C(C)=CC)C(O)CC23C)C1(C)COC(=O)C(C)=CC (stereo not shown) [Tig—R—Cro—6]
Cytotoxicity activity [10]: weak

CC=C(C)C(=O)OCC12C(O)CC3(C)C(=CCC4C5(C)CCC(O)C(C)(CO)C5CCC43C)C1CC(C)(C)C(O)C2O (stereo not shown) [Compound A2]
Cytotoxicity activity [11]: moderate

CC=C(C)C(=O)OCC1(C)C(O)CCC2(C)C1CCC1(C)C2CC=C2C3CC(C)(C)C(O)C(OC(=O)C=C(C)C)C3(CO)C(O)CC21C (stereo not shown) [Tig—Sen—6]
Cytotoxicity activity (esterification products of E4A—Tig—N with senecioyl chloride): moderate

CC=C(C)C(=O)OCC1(C)C(OC(=O)C(C)=CC)CCC2(C)C1CCC1(C)C2CC=C2C3CC(C)(C)C(O)C(O)C3(CO)C(O)CC21C (stereo not shown) [Compound A31]
Cytotoxicity activity [11]: moderate

CC=C(C)C(=O)OCC12C(O)CC3(C)C(=CCC4C5(C)CCC(O)C(C)(CO)C5CCC43C)C1CC(C)(C)C(OC(=O)C(C)=CC)C2OC(=O)C(C)=CC (stereo not shown) [Compound A20]
Cytotoxicity activity [11]: moderate

CC(=O)OCC12C(O)CC3(C)C(=CCC4C5(C)CCC(O)C(C)(CO)C5CCC43C)C1CC(C)(C)C(O)C2O (stereo not shown) [Compound H2]
Cytotoxicity activity [12]: moderate

CC1(C)CC2C3=CCC4C5(C)CCC(OC(=O)C=Cc6ccccc6)C(C)(COC(=O)C=Cc6ccccc6)C5CCC4(C)C3(C)CC(O)C2(COC(=O)C=Cc2ccccc2)C(O)C1OC(=O)C=Cc1ccccc1 (stereo not shown) [Compound J11]
Cytotoxicity activity [14]: weak

CC=C(C)C(=O)OC1C(OC(=O)C(C)=CC)C2(CO)C(O)CC3(C)C(=CCC4C5(C)CCC(O)C(C)(CO)C5CCC43C)C2CC1(C)C (stereo not shown) [Compound A24]
Cytotoxicity activity [11]: moderate
